In PubChem BioAssay AID1208 (EPA DSSTox, 2008) one finds Potency and outcome data, which are given here for 84 compounds.

Each structure is given as a SMILES string. Calls of active or inactive are those of the source.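 How the source made its calls: active means at least one rat sex group has a carcinogenic potency value and tumor site recorded; inconclusive means only rat studies were judged inadequate by the national testing program; inactive means no potency or tumor site, with negative rat experiments.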

One data set concerns rat chronic carcinogenicity bioassay, TD50. The data set can be described thus: DSSTox (CPDBAS) Carcinogenic Potency Database Summary Rat Bioassay Results. The note with it: TD50_Rat_Note: TD50 is harmonic mean of more than one positive test; TargetSites_Rat_BothSexes: hematopoietic system; stronger effect = lower value. A digest of the protocol:
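The activity score maps log10(1/TD50_Rat_mmol) linearly onto 1–100; actives without a computed TD50, such as mixtures, receive 50. Source data are chronic rat carcinogenicity tests, using the most positive experiment for each sex.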
On to `O=S(=O)(O)c1ccc2c(N=Nc3ccc(S(=O)(=O)O)c4ccccc34)c(O)c(S(=O)(=O)O)cc2c1`, for which the Potency is 1470 mg/kg/day.

The same data set, now with this note: TD50_Rat_Note: TD50 is harmonic mean of more than one positive test; TargetSites_Rat_Female: clitoral gland; ear Zymbals gland; mammary gland; thyroid gland; stronger effect = lower value.
Consider `COc1ccc(N)cc1N`, for which the Potency is 183 mg/kg/day.

The data set is the same for the next values; noted with them: TD50_Rat_Note: TD50 is harmonic mean of more than one positive test; TargetSites_Rat_Female: hematopoietic system; stronger effect = lower value.
Consider `COC(C)(C)C`, for which the Potency was 702 mg/kg/day.

Still in this data set, the particulars now being: TD50_Rat_Note: TD50 is harmonic mean of more than one positive test; TargetSites_Rat_Female: large intestine; stronger effect = lower value.
On to `Nc1ccc(N=Nc2ccccc2)c(N)n1`, for which the Potency was 303 mg/kg/day.

The data set is the same for the next values; noted with them: TD50_Rat_Note: TD50 is harmonic mean of more than one positive test; TargetSites_Rat_Female: liver; stronger effect = lower value.
Consider `CCC1(c2ccccc2)C(=O)N=C(O)NC1=O` (stereo not drawn), for which the Potency was 86 mg/kg/day.

For `CC(=O)N(O)c1ccc2c(c1)Cc1ccccc1-2`, the Potency was 0.988 mg/kg/day.

With `Brc1cc(Br)c(-c2cc(Br)c(Br)cc2Br)cc1Br`, the Potency is 0.322 mg/kg/day.

`CCCCOCCOCCOCc1cc2c(cc1CCC)OCO2`: the Potency was 633 mg/kg/day.

On to `Oc1ccc2ccccc2c1N=Nc1ccccc1`, for which the Potency was 29.4 mg/kg/day.

The data set is the same for the next values; noted with them: TD50_Rat_Note: TD50 is harmonic mean of more than one positive test; TargetSites_Rat_Female: mammary gland; stronger effect = lower value.
For `Nc1ccc(-c2ccc(N)c(Cl)c2)cc1Cl`, the Potency was 28.1 mg/kg/day.

Still in this data set, the particulars now being: TD50_Rat_Note: TD50 is harmonic mean of more than one positive test; TargetSites_Rat_Female: oral cavity; stronger effect = lower value.
`[K+]`: the Potency was 440 mg/kg/day.

Still in this data set, the particulars now being: TD50_Rat_Note: TD50 is harmonic mean of more than one positive test; TargetSites_Rat_Female: stomach; stronger effect = lower value.
As for `O=C(O)/C=C/c1ccc(O)c(O)c1`, the Potency was 297 mg/kg/day.

Take `NC(N)=Nc1nc(CSCCNc2nsnc2N)cs1`: the Potency is 4990 mg/kg/day.

Staying with this data set, now noted: TD50_Rat_Note: TD50 is harmonic mean of more than one positive test; greater than ten-fold variation among TD50 values for positive res; TargetSites_Rat_Female: liver; stronger effect = lower value.
On to `COC(N)=O`, for which the Potency is 56.6 mg/kg/day.

Staying with this data set, now noted: TD50_Rat_Note: TD50 is harmonic mean of more than one positive test; greater than ten-fold variation among TD50 values for positive res; TargetSites_Rat_Female: small intestine; urinary bladder; stronger effect = lower value.
As for `O=c1c(O)c(-c2ccc(O)c(O)c2)oc2cc(O)cc(O)c12`, the Potency was 10.1 mg/kg/day.

Staying with this data set, now noted: TD50_Rat_Note: TD50 is harmonic mean of more than one positive test; harmonic mean of TD50 includes a value for upper 99% confidence li; TargetSites_Rat_Female: liver; stronger effect = lower value.
With `CC/C(=C(\c1ccccc1)c1ccc(OCCN(C)C)cc1)c1ccccc1`, the Potency was 3.96 mg/kg/day.

Consider `Clc1c(Cl)c(Cl)c(Cl)c(Cl)c1Cl`, for which the Potency was 3.86 mg/kg/day.

Staying with this data set, now noted: TD50_Rat_Note: TD50 is harmonic mean of more than one positive test; harmonic mean of TD50 includes a value for upper 99% confidence li; TargetSites_Rat_Female: stomach; stronger effect = lower value.
On to `Oc1ccccc1O`, for which the Potency was 71.5 mg/kg/day.

`CC(C)(Oc1ccc(C2CC2(Cl)Cl)cc1)C(=O)O` (stereo not drawn): the Potency was 1.97 mg/kg/day.

The data set is the same for the next values; noted with them: TD50_Rat_Note: TD50 is harmonic mean of more than one positive test; harmonic mean of TD50 includes a value for upper 99% confidence li; stronger effect = lower value.
For the compound `CCSCCC(N)C(=O)O` (stereo not drawn), the Potency is 9.76 mg/kg/day.

The same data set, now with this note: TD50_Rat_Note: TD50 is harmonic mean of more than one positive test; stronger effect = lower value.
Regarding `C=CC(O)c1ccc2c(c1)OCO2` (stereo not drawn), the Potency was 18.4 mg/kg/day.

The same data set, now with this note: TD50_Rat_Note: harmonic mean of TD50 includes a value for upper 99% confidence limit from study with 100% tumor incidence but no lifeta; stronger effect = lower value.
Consider `CCCCCCCCCCCCCCN(C)N=O`, for which the Potency is 1.65 mg/kg/day.

Still in this data set, the particulars now being: TD50_Rat_Note: no positive results.
On to `C[C@@H]1C[C@H]2[C@@H]3CCC4=CC(=O)C=C[C@]4(C)[C@@]3(F)[C@@H](O)C[C@]2(C)[C@@]1(O)C(=O)CO`, for which the outcome was “inactive; no positive results”.

In the case of `C=CC(=O)c1ccc2c(c1)OCO2`, the outcome was “inactive; no positive results”.

`CC1=C(CC(=O)O)c2cc(F)ccc2/C1=C\c1ccc(S(C)(=O)=O)cc1`: the outcome was “inactive; no positive results”.

For the compound `O=NN1CN2CN(C1)CN(N=O)C2`, the outcome was “inactive; no positive results”.

With `CCC(CC)C(=O)NC(N)=O`, the outcome is “inactive; no positive results”.

Consider `CN1C(=O)OC(C)(C)C1=O`, for which the outcome was “inactive; no positive results”.

`[O]N=O`: the outcome was “inactive; no positive results”.

On to `Cc1ccc(O)c(C(C)(C)C)c1`, for which the outcome is “inactive; no positive results”.

The data set is the same for the next values; noted with them: TD50_Rat_Note: no positive results; TargetSites_Rat_BothSexes: no positive results.
Take `O=C1C(c2[nH]c3ccc(S(=O)(=O)O)cc3c2O)=Nc2ccc(S(=O)(=O)O)cc21`: the result was inactive.

The data set is the same for the next values; noted with them: TD50_Rat_Note: no positive results; TargetSites_Rat_Female: no positive results.
As to `FC(F)(Cl)Cl`, the outcome is “inactive; no positive results”.

In the case of `Oc1c(Cl)c(Cl)c(Cl)c(Cl)c1Cl`, the outcome is “inactive; no positive results”.

Turning to `CC(C)OC(=O)Nc1cccc(Cl)c1`, the outcome was “inactive; no positive results”.

As for `CCCCCCOc1cc(C)c(O)c(C)c1C`, the outcome was inactive.

As to `CC(=O)Oc1c(C)c(C)c2c(c1C)CCC(C)(CCCC(C)CCCC(C)CCCC(C)C)O2` (stereo not drawn), the outcome was “inactive; no positive results”.

In the case of `CCCCCCCCCc1ccc(OCCOCCO)cc1`, the outcome was inactive.

`O=S1(=O)CC=CC1`: the outcome was “inactive; no positive results”.

For the compound `CCOc1ccc2c(c1)C(C)=CC(C)(C)N2`, the outcome is “inactive; no positive results”.

Consider `ClC(Br)Br`, for which the outcome is “inactive; no positive results”.

For `O=c1c(O)c(-c2ccc(O)c(O)c2)oc2cc(O)cc(O)c12`, the outcome was “inactive; no positive results”.

With `O=C(O)COc1cc(Cl)c(Cl)cc1Cl`, the outcome was “inactive; no positive results”.

Turning to `CC(=O)Nc1cccc2c1Cc1ccccc1-2`, the result was inactive.

As for `Cc1c(-c2cnccn2)ssc1=S`, the outcome was “inactive; no positive results”.

Take `COP(=O)(OC)OC`: the outcome was “inactive; no positive results”.

Turning to `ClCc1ccccn1`, the outcome was “inactive; no positive results”.

Turning to `NC(=O)c1cnccn1`, the outcome was “inactive; no positive results”.

Consider `CN1C(=O)C[C@@H](C(=O)N[C@@H](Cc2cnc[nH]2)C(=O)N2CCC[C@H]2C(N)=O)NC1=O`, for which the outcome was “inactive; no positive results”.

As to `CN(C)c1ccc(N=NS(=O)(=O)O)cc1`, the outcome was “inactive; no positive results”.

As to `CCCCOCCO`, the outcome is “inactive; no positive results”.

As for `CCc1ccc(C(c2ccc(CC)cc2)C(Cl)Cl)cc1`, the outcome is “inactive; no positive results”.

On to `C=CC=O`, for which the outcome is “inactive; no positive results”.

In the case of `N#CN=C(N)N`, the outcome was “inactive; no positive results”.

Take `O=NN1C[C@H](O)C[C@H]1C(=O)O`: the outcome is “inactive; no positive results”.

As for `CC(CCl)OC(C)CCl` (stereo not drawn), the outcome is “inactive; no positive results”.

In the case of `CN(C)CCN(Cc1ccsc1)c1ccccn1`, the outcome was “inactive; no positive results”.

As to `[O-][Cl+]O`, the outcome was “inactive; no positive results”.

Consider `Nc1nc(N)c2nc(-c3ccccc3)c(N)nc2n1`, for which the outcome is “inactive; no positive results”.

For the compound `CCN(CC)CC#CC(C)(C)OC(=O)C(O)(c1ccccc1)C1CCCCC1` (stereo not drawn), the outcome was “inactive; no positive results”.

Turning to `O=C(O)c1nn(Cc2ccc(Cl)cc2Cl)c2ccccc12`, the outcome is “inactive; no positive results”.

Turning to `CCn1nc(C)c2c1C(c1ccccc1)=NCC(=O)N2`, the outcome is “inactive; no positive results”.

For `CC(=O)Nc1cccc2c1-c1ccccc1C2`, the outcome was inactive.

`Cc1cc(C(C)(C)C)c(O)c(C(C)(C)C)c1`: the outcome is “inactive; no positive results”.

In the case of `NC(=O)NC1NC(=O)NC1=O` (stereo not drawn), the outcome was “inactive; no positive results”.

Regarding `Nc1c(Cl)c(Cl)nc(C(=O)O)c1Cl`, the outcome is “inactive; no positive results”.

For `Clc1ccc(Sc2cc(Cl)c(Cl)cc2Cl)cc1`, the outcome was “inactive; no positive results”.

On to `CN1C(=O)CN=C(c2ccccc2)c2cc(Cl)ccc21`, for which the outcome is “inactive; no positive results”.

With `CCCl`, the outcome was “inactive; no positive results”.

Still in this data set, the particulars now being: TD50_Rat_Note: positive test results only by intraperitoneal or intravenous injection; TD50 is harmonic mean of more than one positive; TargetSites_Rat_Female: hematopoietic system; mammary gland; nervous system; stronger effect = lower value.
In the case of `CNNCc1ccc(C(=O)NC(C)C)cc1`, the Potency is 0.351 mg/kg/day.

Still in this data set, the particulars now being: TD50_Rat_Note: positive test results only by intraperitoneal or intravenous injection; stronger effect = lower value.
Consider `O=NN1CCCN(N=O)C1`, for which the Potency was 0.166 mg/kg/day.

Regarding `CNNCc1ccc(C(=O)NC(C)C)cc1`, the Potency is 4.01 mg/kg/day.

For the compound `O=C1C=C(N2CC2)C(=O)C(N2CC2)=C1N1CC1`, the Potency was 0.00504 mg/kg/day.

The same data set, now with this note: TargetSites_Rat_Female: all tumor bearing animals; stronger effect = lower value.
For `O=[N+]([O-])c1ccc(-c2nc(NCCO)c3ccccc3n2)s1`, the Potency was 1.87 mg/kg/day.

Still in this data set, the particulars now being: TargetSites_Rat_Female: ear Zymbals gland; mammary gland; stronger effect = lower value.
Consider `CC(=O)N(C(C)=O)c1cccc2c1Cc1ccccc1-2`, for which the Potency was 19 mg/kg/day.

Still in this data set, the particulars now being: TargetSites_Rat_Female: liver; stronger effect = lower value.
As to `Oc1c(Cl)c(Cl)c(Cl)c(Cl)c1Cl`, the Potency was 13.1 mg/kg/day.

The same data set, now with this note: TargetSites_Rat_Female: no positive results; stronger effect = lower value.
Take `Oc1c(Cl)c(Cl)c(Cl)c(Cl)c1Cl`: the Potency was 59 mg/kg/day.

Turning to `ClC(Cl)(Cl)C(Cl)(Cl)Cl`, the Potency was 55.4 mg/kg/day.

Regarding `C1CCOC1`, the Potency is 407 mg/kg/day.

For `Nc1cc(S(=O)(=O)[O-])cc2cc(S(=O)(=O)[O-])c(N=Nc3ccc(-c4ccc(N=Nc5c(S(=O)(=O)[O-])cc6cc(S(=O)(=O)[O-])cc(N)c6c5O)c(O)c4)cc3O)c(O)c12.[Cu].[Cu].[Na+].[Na+].[Na+].[Na+]`, the Potency was 1570 mg/kg/day.

For the compound `Clc1ccc(Cl)cc1`, the Potency was 644 mg/kg/day.

Regarding `Nc1ccccc1C(=O)OC/C=C/c1ccccc1`, the Potency was 12100 mg/kg/day.

Still in this data set, the particulars now being: TargetSites_Rat_Female: stomach; stronger effect = lower value.
As to `CC(C)=NNc1ncc(-c2ccc([N+](=O)[O-])o2)s1`, the Potency is 6.05 mg/kg/day.

Still in this data set, the particulars now being: TargetSites_Rat_Female: urinary bladder; stronger effect = lower value.
As to `O=Nc1ccc(NO)cc1`, the Potency is 106 mg/kg/day.

The data set is the same for the next values; noted with them: stronger effect = lower value.
Consider `COc1cccc(O)c1O`, for which the Potency was 48.7 mg/kg/day.

Consider `CCCCCCCCCCN(C)N=O`, for which the Potency was 1.26 mg/kg/day.

As to `Cc1cc(=O)n(-c2ccccc2)n1C`, the Potency was 1230 mg/kg/day.

Consider `Cc1ccccc1N=O`, for which the Potency is 50.7 mg/kg/day.

Regarding `CC1CN1P(=O)(N1CC1C)N1CC1C` (stereo not drawn), the Potency was 4.46 mg/kg/day.
